Each block holds one compound with its values, some of them ahead of it.
Legend:
Format in all cases: cell-based
SK-BR-3 = assay: CellTiter Glo cell viability, 7 days; conditions: Homo sapiens, 168 h, breast, read-out: 7 day IC50
Description: (§1) The compounds of the present invention were tested against a panel of cancer cells to determine the effect on cell viability. Viability was determined by measuring cellular ATP levels using CellTiter Glo reagent (Promega, Madison, Wis.).
(§2) MATERIALS: • A. Cancer cell lines obtained from ATCC or DSMZ • B. RPMI supplemented with 10% FBS/L-glutamine/NEAA/HEPES/Na-Pyruvate • C. DMEM supplemented with 10% FBS and L-glutamine. • B. Compounds, typically 50 mM stocks diluted in DMSO; • C. Clear, flat, TC-surface bottomed 96-well microplates (Corning #3595) • D. CellTiter-Glo® Luminescent Cell Viability Assay (Promega #G7573)
(§3) METHODS: • 1. Cells were plated at densities of 2000-5000 cells per well in 100 μl volume on a 96-well plate, and were incubated overnight. • 2. Test compound(s) were serially diluted to the desired 250× concentration. • 3. For each concentration of compound to be tested, 0.4 μl of 250× compound was added in triplicate to the cell plates. Plates were then incubated at 37° C. for 7 days. • 4. 100 μL of prepared CellTiter Glo reagent was added to treated cells, and plates were gently mixed for 2 minutes, and equilibrated for 10 minutes at room temperature. • 5. Luminescence was measured and the viability of treated cells relative to DMSO control was calculated.
(§4) Cancer cell lines were treated with TTK inhibitor for 7 days and cell viability was measured using the CellTiter Glo assay (Promega, Madison, Wis.).

PANC1 = assay: CellTiter Glo cell viability, 7 days; conditions: Homo sapiens, PANC-1, 168 h, pancreas, read-out: 7 day IC50
Description: as §1, §2, §3, §4

786-0 = assay: CellTiter Glo cell viability, 7 days; conditions: Homo sapiens, 168 h, kidney, read-out: 7 day IC50
Description: as §1, §2, §3, §4

OPM-2 = assay: CellTiter Glo cell viability, 7 days; conditions: Homo sapiens, 168 h, blood, read-out: 7 day IC50
Description: as §1, §2, §3, §4

OVCAR-5 = assay: CellTiter Glo cell viability, 7 days; conditions: Homo sapiens, 168 h, ovarian, read-out: 7 day IC50
Description: as §1, §2, §3, §4

PC-3 = assay: CellTiter Glo cell viability, 7 days; conditions: Homo sapiens, 168 h, prostate, read-out: 7 day IC50
Description: as §1, §2, §3, §4

OVCAR-3 = assay: CellTiter Glo cell viability, 7 days; conditions: Homo sapiens, 168 h, ovarian, read-out: 7 day IC50
Description: as §1, §2, §3, §4

IGR-OV1 = assay: CellTiter Glo cell viability, 7 days; conditions: Homo sapiens, IGROV-1, 168 h, ovarian, read-out: 7 day IC50
Description: as §1, §2, §3, §4

DMS-114 = assay: CellTiter Glo cell viability, 7 days; conditions: Homo sapiens, 168 h, lung, read-out: 7 day IC50
Description: as §1, §2, §3, §4

NCI-N87 = assay: CellTiter Glo cell viability, 7 days; conditions: Homo sapiens, 168 h, gastric, read-out: 7 day IC50
Description: as §1, §2, §3, §4

BT-474 = assay: CellTiter Glo cell viability, 7 days; conditions: Homo sapiens, 168 h, breast, read-out: 7 day IC50
Description: as §1, §2, §3, §4

KARPAS-299 = assay: CellTiter Glo cell viability, 7 days; conditions: Homo sapiens, 168 h, blood, read-out: 7 day IC50
Description: as §1, §2, §3, §4

Colo-205 = assay: CellTiter Glo cell viability, 7 days; conditions: Homo sapiens, 168 h, colon, read-out: 7 day IC50
Description: as §1, §2, §3, §4

MCF-7 = assay: CellTiter Glo cell viability, 7 days; conditions: Homo sapiens, MCF7, 168 h, breast, read-out: 7 day IC50
Description: as §1, §2, §3, §4

MDA-MB-436 = assay: CellTiter Glo cell viability, 7 days; conditions: Homo sapiens, 168 h, breast, read-out: 7 day IC50
Description: as §1, §2, §3, §4

HCT-15 = assay: CellTiter Glo cell viability, 7 days; conditions: Homo sapiens, 168 h, colon, read-out: 7 day IC50
Description: as §1, §2, §3, §4

DU4475 = assay: CellTiter Glo cell viability, 7 days; conditions: Homo sapiens, DU-4475, 168 h, breast, read-out: 7 day IC50
Description: as §1, §2, §3, §4

BxPC-3 = assay: CellTiter Glo cell viability, 7 days; conditions: Homo sapiens, 168 h, pancreas, read-out: 7 day IC50
Description: as §1, §2, §3, §4

MDA-MB-231 = assay: CellTiter Glo cell viability, 7 days; conditions: Homo sapiens, 168 h, breast, read-out: 7 day IC50
Description: as §1, §2, §3, §4

SW-480 = assay: CellTiter Glo cell viability, 7 days; conditions: Homo sapiens, SW480, 168 h, colon, read-out: 7 day IC50
Description: as §1, §2, §3, §4

U-87MG = assay: CellTiter Glo cell viability, 7 days; conditions: Homo sapiens, 168 h, CNS, read-out: 7 day IC50
Description: as §1, §2, §3, §4

DU-145 = assay: CellTiter Glo cell viability, 7 days; conditions: Homo sapiens, 168 h, prostate, read-out: 7 day IC50
Description: as §1, §2, §3, §4

HCC827 = assay: CellTiter Glo cell viability, 7 days; conditions: Homo sapiens, 168 h, lung, read-out: 7 day IC50
Description: as §1, §2, §3, §4

ZR-75-1 = assay: CellTiter Glo cell viability, 7 days; conditions: Homo sapiens, 168 h, breast, read-out: 7 day IC50
Description: as §1, §2, §3, §4

p53 pathway = assay: Western blot of p53 and p21 in HCT-116 cells
Description: (§5) Image analysis: Cells were fixed and stained with Hoechst dye and anti-(3-tubulin, anti-pericentrin and anti-centromere antibodies. Images were taken on a BD Pathway high content imaging system. For cell cycle analysis, cells were fixed, stained with propidium iodide and analyzed by FACS. For Western blot analysis, cell lysates were run on SDS-polyacrylamide gels and proteins were transferred to PVDF membrane. Membranes were probed with the indicated antibodies.
(§6) Western blot analyses: Cells were lysed in 10 mM Tris-HCl pH 7.5, 1 mM EDTA, 150 mM NaCl, 10% glycerol, protease inhibitor cocktail, phosphatase 1, and phosphatase 2. Protein yields were determined by Bradford assay and equivalent amounts of protein were loaded for each sample.
Antibodies: All antibodies were purchased from Cell Signaling Technology.
Cell lysates were analyzed by Western blot with anti-p53, anti-p21 or anti-β-actin antibodies (see FIG. 4A).
(§7) p53 was previously reported to suppress the expression of survivin. […] Cell lysates were analyzed by Western blot with anti-p53, anti-survivin or anti-β-actin antibodies (see FIG. 4C). […] Induction of p53 preceded the loss of survivin.

p53 = assay: Western blot with phosphospecific anti-p53 antibodies in HCT-116 cells; conditions: 1 μM, 48 hours
Description: as §6
Phosphorylation of p53 at various sites on the N-terminus results in the stabilization of p53. […] Cell lysates were analyzed by Western blot with anti-GAPDH, anti-p53 or the phosphospecific anti-p53 antibodies.

p21 mRNA = assay: qRT-PCR of p21 mRNA in HCT-116 cells; conditions: 1 μM, time course, relative to 7 hour DMSO control
Description: For qRT-PCR: Primer probe sets for p21 and GAPDH were purchased from Applied Biosystems. qRT-PCR was performed using the Quantitect Probe RT-PCR Kit from Qiagen following the standard protocol.
The p21 mRNA levels were normalized to the GAPDH mRNA levels from the same total RNA sample.

A549 cells = assay: Image analysis of chromosome segregation; conditions: 10 μM, 24 hours
Description: as §5
Cells were stained with Hoechst dye (blue) and anti-tubulin (green), anti-pericentrin (red) and anti-centromere (white) antibodies.

survivin = assay: Western blot of survivin in HCT-116 cells; conditions: increasing concentrations, 48 hours
Description: as §6, §7

HCT-116 cells = assay: Cell cycle analysis by FACS (propidium iodide); conditions: 1 μM, 24, 48 or 72 hours
Description: as §5
Cells were fixed, stained with propidium iodide and analyzed by fluorescence activated cell sorting (FACS) using a FACScan instrument.

histone H2AX = assay: Western blot of H2AX-pS139 in HCT-116 cells; conditions: 1 μM, 7, 24, 36 or 48 hours
Description: as §6
Phosphorylation and stabilization of p53 occurs in response to DNA damage. Phosphorylation of H2AX functions to recruit DNA repair enzymes to sites of DNA damage and serves as a marker for DNA double strand breaks. […] Cell lysates were analyzed by Western blot with anti-H2AX-pS139 (gH2AX) or β-actin antibodies. […] Inhibition of TTK induces the phosphorylation of p53 on serine 15 and H2AX on serine 139.

IC50 (SK-BR-3): 56 nM
IC50 (PANC1): 3700 nM
IC50 (786-0): 1200 nM
IC50 (OVCAR-5): 150 nM
IC50 (PC-3): 200 nM
IC50 (OVCAR-3): 150 nM
IC50 (BT-474): > 30000 nM
IC50 (KARPAS-299): 96 nM
IC50 (Colo-205): 90 nM
IC50 (MCF-7): 61 nM
IC50 (MDA-MB-436): 8700 nM
IC50 (HCT-15): 280 nM
IC50 (BxPC-3): 120 nM
IC50 (MDA-MB-231): 28000 nM
IC50 (SW-480): 140 nM
IC50 (U-87MG): 670 nM
IC50 (DU-145): 370 nM
IC50 (HCC827): 94 nM
Compound: Cc1cc(N2CCOCC2)ccc1Nc1nc(NC2CCCCC2)c2nc[nH]c2n1 [N6-cyclohexyl-N2-(2-methyl-4-morpholino-phenyl)-9H-purine-2,6-diamine]
IC50 (OPM-2): 99 nM
IC50 (IGR-OV1): 580 nM
IC50 (DMS-114): 180 nM
IC50 (NCI-N87): 2100 nM
IC50 (DU4475): 72 nM
IC50 (ZR-75-1): 56 nM

Compound: Cc1cc(N2CCOCC2)ccc1Nc1nc(NC2CCCCC2)c2nc[nH]c2n1 [Compound A, N6-cyclohexyl-N2-(2-methyl-4-morpholino-phenyl)-9H-purine-2,6-diamine]
time of maximal induction of the p53 pathway (p53 pathway; 1 μM): ≤ 36 h
p53 pathway activation (p53, p21 protein) (p53 pathway; 1 μM, time course): activate the p53 pathway in a time- and dose-dependent manner
p53 protein induction (p53 pathway; increasing concentrations, 48 hours): induced p53 in a dose- and time-dependent manner
site of p53 phosphorylation (p53): phosphorylated on serine 15
p21 mRNA normalized to GAPDH mRNA (p21 mRNA): induced in a time-dependent manner
chromosome segregation (A549 cells): causes chromosome segregation defects
survivin protein (survivin): decrease in survivin protein
DNA content (ploidy) (HCT-116 cells): both aneuploidy, as seen in FIG. 3 by a broadening of the 2N and 4N peaks, as well as the formation of tetraploid (8N) cells
phosphorylation of serine 139 on H2AX (histone H2AX): induced by Compound A in a time-dependent manner

Reference: patent US20120122840A1, “COMPOUNDS AND THERAPEUTIC USES THEREOF” (Myrexis, Inc., priority 2009, published 2012)
